Results as given in patent publication US7868135B2, “Compositions of lipopeptide antibiotic derivatives and methods of use thereof” (priority 2003, dated 2011).
Where two headings read alike, the source gives them in different places.

Tested on: Staphylococcus aureus (MSSA)
Procedure: (“Approved Standard M7-A3”).
The antimicrobial lipopeptide derivatives described herein were tested for antimicrobial activity against Gram-positive bacteria as follows. The minimum inhibitory concentrations (MIC) of the antimicrobial lipopeptide derivatives of the invention were determined using NCCLS guidelines M7-A6 (2003) with a slight modification in that doubling serial dilutions were used to dilute the test compounds. The broth phase microdilution method was used. Isolated colonies of Staphylococcus aureus (MSSA) from an 18-24 hour blood agar plate cultures were used to inoculate cation adjusted Mueller-Hinton broth (CAMHB) supplemented with 0.625 mM calcium. […] A negative control containing media alone and a positive growth control containing bacteria with media alone were also included. MICs were determined after incubating the plates at about 37° C. for 24 hours. […] In Tables 1 to 16, R is the core cyclic peptide of amphomycin or aspartocin, which can be in the form of a β-isomer, an anhydro, a dianhydro, or any combination thereof. […] Furthermore, a person of skill in the art will appreciate that all the pounds, or groups of compounds, derived from the various combinations of and substituents shown in Tables 1 to 16, are disclosed by the present the same extent as if each compound or group of compounds was set forth individually.

[1] = S. aureus (MSSA), CAMHB supplemented with 0.625 mM calcium, 24 hours at about 37° C., a range = compound tested multiple times

Compound | MIC (24 h) | MIC [1]
CCCCCCCCCCCCCCC(=O)NC(CC(=O)O)C(=O)NC1C(=O)N2CCCCC2C(=O)NC(C(C)C(=O)O)C(=O)NC(CC(=O)O)C(=O)NCC(=O)NC(CC(=O)O)C(=O)NCC(=O)NC(C(C)NC(=O)CNC(=O)[C@@H](N)C(C)C)C(=O)NC(C(C)C)C(=O)N2CCCC2C(=O)NC1C (some centres unmarked) [Compound 37, C15-Amphomycin-9-Gly-Val] | 2 to 4 µg/mL | –
CCCCCCCCCCCCCCC(=O)NC(CC(=O)O)C(=O)NC1C(=O)N2CCCCC2C(=O)NC(C(C)C(=O)O)C(=O)NC(CC(=O)O)C(=O)NCC(=O)NC(CC(=O)O)C(=O)NCC(=O)NC(C(C)NC(=O)[C@@H](N)CC(N)=O)C(=O)NC(C(C)C)C(=O)N2CCCC2C(=O)NC1C (some centres unmarked) [Compound 38, C15-Amphomycin-9-Asn] | 2 µg/mL | –
CCCCCCCCCCCCCCC(=O)NC(CC(=O)O)C(=O)NC1C(=O)N2CCCCC2C(=O)NC(C(C)C(=O)O)C(=O)NC(CC(=O)O)C(=O)NCC(=O)NC(CC(=O)O)C(=O)NCC(=O)NC(C(C)NC(=O)[C@@H](N)Cc2ccc(O)cc2)C(=O)NC(C(C)C)C(=O)N2CCCC2C(=O)NC1C (some centres unmarked) [Compound 39, C15-Amphomycin-9-Tyr] | 32 to 64 µg/mL | –
CCCCCCCCCCCCCCC(=O)NC(CC(=O)O)C(=O)NC1C(=O)N2CCCCC2C(=O)NC(C(C)C(=O)O)C(=O)NC(CC(=O)O)C(=O)NCC(=O)NC(CC(=O)O)C(=O)NCC(=O)NC(C(C)NC(=O)[C@@H](N)Cc2c[nH]c3ccccc23)C(=O)NC(C(C)C)C(=O)N2CCCC2C(=O)NC1C (some centres unmarked) [Compound 40, C15-Amphomycin-9-Trp] | 32 to 64 µg/mL | –
CCCCCCCCCCCCCCC(=O)NC(CC(=O)O)C(=O)NC1C(=O)N2CCCCC2C(=O)NC(C(C)C(=O)O)C(=O)NC(CC(=O)O)C(=O)NCC(=O)NC(CC(=O)O)C(=O)NCC(=O)NC(C(C)NC(=O)[C@@H](N)c2ccccc2)C(=O)NC(C(C)C)C(=O)N2CCCC2C(=O)NC1C (some centres unmarked) [Compound 41, C15-Amphomycin-9-Phg] | 4 µg/mL | –
CCCCCCCCCCCCCCC(=O)NC(CC(=O)O)C(=O)NC1C(=O)N2CCCCC2C(=O)NC(C(C)C(=O)O)C(=O)NC(CC(=O)O)C(=O)NCC(=O)NC(CC(=O)O)C(=O)NCC(=O)NC(C(C)NC(=O)CNC(=O)CN)C(=O)NC(C(C)C)C(=O)N2CCCC2C(=O)NC1C (centres unmarked) [Compound 42, C15-Amphomycin-9-Gly-Gly] | 1 µg/mL | –
CCCCCCCCCCCCCCC(=O)NC(CC(=O)O)C(=O)NC1C(=O)N2CCCCC2C(=O)NC(C(C)C(=O)O)C(=O)NC(CC(=O)O)C(=O)NCC(=O)NC(CC(=O)O)C(=O)NCC(=O)NC(C(C)NC(=O)[C@@H](N)CCC(N)=O)C(=O)NC(C(C)C)C(=O)N2CCCC2C(=O)NC1C (some centres unmarked) [Compound 43, C15-Amphomycin-9-Gln] | 8 to 16 µg/mL | –
CCCCCCCCCCCCCCC(=O)NC(CC(=O)O)C(=O)NC1C(=O)N2CCCCC2C(=O)NC(C(C)C(=O)O)C(=O)NC(CC(=O)O)C(=O)NCC(=O)NC(CC(=O)O)C(=O)NCC(=O)NC(C(C)NC(=O)[C@@H](N)[C@@H](C)O)C(=O)NC(C(C)C)C(=O)N2CCCC2C(=O)NC1C (some centres unmarked) [Compound 44, C15-Amphomycin-9-Thr] | 2 to 4 µg/mL | –
CCCCCCCCCCCCCCC(=O)NC(CC(=O)O)C(=O)NC1C(=O)N2CCCCC2C(=O)NC(C(C)C(=O)O)C(=O)NC(CC(=O)O)C(=O)NCC(=O)NC(CC(=O)O)C(=O)NCC(=O)NC(C(C)NC(=O)CNC(=O)[C@@H](N)CC(C)C)C(=O)NC(C(C)C)C(=O)N2CCCC2C(=O)NC1C (some centres unmarked) [Compound 46, C15-Amphomycin-9-Gly-Leu] | 1 µg/mL | –
CCCCCCCCCCCCCCC(=O)NC(CC(=O)O)C(=O)NC1C(=O)N2CCCCC2C(=O)NC(C(C)C(=O)O)C(=O)NC(CC(=O)O)C(=O)NCC(=O)NC(CC(=O)O)C(=O)NCC(=O)NC(C(C)NC(=O)CNC(=O)CCC(=O)O)C(=O)NC(C(C)C)C(=O)N2CCCC2C(=O)NC1C (centres unmarked) [Compound 48, C15-Amphomycin-9-Gly-Suc] | 8 µg/mL | –
CCCCCCCCCCCCCCC(=O)NC(CC(=O)O)C(=O)NC1C(=O)N2CCCCC2C(=O)NC(C(C)C(=O)O)C(=O)NC(CC(=O)O)C(=O)NCC(=O)NC(CC(=O)O)C(=O)NCC(=O)NC(C(C)NC(=O)CNC(C)=O)C(=O)NC(C(C)C)C(=O)N2CCCC2C(=O)NC1C (centres unmarked) [Compound 49, C15-Amphomycin-9-Gly-Ac] | 4 µg/mL | –
CCCCCCCCCCCCC(=O)NC(CC(=O)O)C(=O)NC1C(=O)N2CCCCC2C(=O)NC(C(C)C(=O)O)C(=O)NC(CC(=O)O)C(=O)NCC(=O)NC(CC(=O)O)C(=O)NCC(=O)NC(C(C)NC(=O)CCCN)C(=O)NC(C(C)C)C(=O)N2CCCC2C(=O)NC1C (centres unmarked) [Compound 50, C13-Amphomycin-9-GABA] | – | 50/1 μg/mL

Other lines, results leading:

MIC (24 h) | MIC [1] | Compound
16 µg/mL | – | CCCCCCCCCCCCCCC(=O)NC(CC(=O)O)C(=O)NC1C(=O)N2CCCCC2C(=O)NC(C(C)C(=O)O)C(=O)NC(CC(=O)O)C(=O)NCC(=O)NC(CC(=O)O)C(=O)NCC(=O)NC(C(C)NC(=O)[C@@H](N)Cc2ccc(OC)cc2)C(=O)NC(C(C)C)C(=O)N2CCCC2C(=O)NC1C (some centres unmarked) [Compound 52, C15-Amphomycin-9-Tyr(Me)]
– | 53/8 μg/mL | CCCCCCCCCCCCC(=O)NC(CC(=O)O)C(=O)NC1C(=O)N2CCCCC2C(=O)NC(C(C)C(=O)O)C(=O)NC(CC(=O)O)C(=O)NCC(=O)NC(CC(=O)O)C(=O)NCC(=O)NC(C(C)NC(=O)CN)C(=O)NC(C(C)C)C(=O)N2CCCC2C(=O)NC1C (centres unmarked) [Compound 53, C13-Amphomycin-9-Gly]
– | 54/2-4 μg/mL | CCCCCCCCCCCCC(=O)NC(CC(=O)O)C(=O)NC1C(=O)N2CCCCC2C(=O)NC(C(C)C(=O)O)C(=O)NC(CC(=O)O)C(=O)NCC(=O)NC(CC(=O)O)C(=O)NCC(=O)NC(C(C)NC(=O)CCN)C(=O)NC(C(C)C)C(=O)N2CCCC2C(=O)NC1C (stereo not drawn) [Compound 54, C13-Amphomycin-9-(β-Ala)]
– | 55/1 μg/mL | CCCCCCCCCCCCC(=O)NC(CC(=O)O)C(=O)NC1C(=O)N2CCCCC2C(=O)NC(C(C)C(=O)O)C(=O)NC(CC(=O)O)C(=O)NCC(=O)NC(CC(=O)O)C(=O)NCC(=O)NC(C(C)NC(=O)CNC)C(=O)NC(C(C)C)C(=O)N2CCCC2C(=O)NC1C (centres unmarked) [Compound 55, C13-Amphomycin-9-Sar]
– | 57/16 μg/mL | CCCCCCCCCCCC(=O)NC(CC(=O)O)C(=O)NC1C(=O)N2CCCCC2C(=O)NC(C(C)C(=O)O)C(=O)NC(CC(=O)O)C(=O)NCC(=O)NC(CC(=O)O)C(=O)NCC(=O)NC(C(C)NC(=O)CCCN)C(=O)NC(C(C)C)C(=O)N2CCCC2C(=O)NC1C (centres unmarked) [Compound 57, C12-Amphomycin-9-GABA]
– | 58/4-8 μg/mL | CCCCCCCCCCCC(=O)NC(CC(=O)O)C(=O)NC1C(=O)N2CCCCC2C(=O)NC(C(C)C(=O)O)C(=O)NC(CC(=O)O)C(=O)NCC(=O)NC(CC(=O)O)C(=O)NCC(=O)NC(C(C)NC(=O)CN)C(=O)NC(C(C)C)C(=O)N2CCCC2C(=O)NC1C (centres unmarked) [Compound 58, C12-Amphomycin-9-Gly]
– | 59/0.5-1 μg/mL | CCCCCCCCCCCCCC(=O)NC(CC(=O)O)C(=O)NC1C(=O)N2CCCCC2C(=O)NC(C(C)C(=O)O)C(=O)NC(CC(=O)O)C(=O)NCC(=O)NC(CC(=O)O)C(=O)NCC(=O)NC(C(C)NC(=O)CCN)C(=O)NC(C(C)C)C(=O)N2CCCC2C(=O)NC1C (stereo not drawn) [Compound 59, C14-Amphomycin-9-(β-Ala)]
– | 62/0.5-1 μg/mL | CCCCCCCCCCCCCC(=O)NC(CC(=O)O)C(=O)NC1C(=O)N2CCCCC2C(=O)NC(C(C)C(=O)O)C(=O)NC(CC(=O)O)C(=O)NCC(=O)NC(CC(=O)O)C(=O)NCC(=O)NC(C(C)NC(=O)CCCN)C(=O)NC(C(C)C)C(=O)N2CCCC2C(=O)NC1C (centres unmarked) [Compound 62, C14-Amphomycin-9-GABA]
4 µg/mL | – | CCCCCCCCCCCCCCC(=O)NC(CC(=O)O)C(=O)NC1C(=O)N2CCCCC2C(=O)NC(C(C)C(=O)O)C(=O)NC(CC(=O)O)C(=O)NCC(=O)NC(CC(=O)O)C(=O)NCC(=O)NC(C(C)NC(=O)[C@@H](C)N)C(=O)NC(C(C)C)C(=O)N2CCCC2C(=O)NC1C (stereo partly drawn) [Compound 66, C15-Amphomycin-9-(D-Ala)]
2 µg/mL | – | CCCCCCCCCCCCCCC(=O)NC(CC(=O)O)C(=O)NC1C(=O)N2CCCCC2C(=O)NC(C(C)C(=O)O)C(=O)NC(CC(=O)O)C(=O)NCC(=O)NC(CC(=O)O)C(=O)NCC(=O)NC(C(C)NC(=O)CNC(=O)CCCN)C(=O)NC(C(C)C)C(=O)N2CCCC2C(=O)NC1C (centres unmarked) [Compound 68, C15-Amphomycin-9-Gly-GABA]
2 µg/mL | – | CCCCCCCCCCCCCCC(=O)NC(CC(=O)O)C(=O)NC1C(=O)N2CCCCC2C(=O)NC(C(C)C(=O)O)C(=O)NC(CC(=O)O)C(=O)NCC(=O)NC(CC(=O)O)C(=O)NCC(=O)NC(C(C)NC(=O)CCNC(=O)CCCCCN)C(=O)NC(C(C)C)C(=O)N2CCCC2C(=O)NC1C (stereo not drawn) [Compound 70, C15-Amphomycin-9-(β-Ala)-Ahx]
4 µg/mL | – | CCCCCCCCCCCCCCC(=O)NC(CC(=O)O)C(=O)NC1C(=O)N2CCCCC2C(=O)NC(C(C)C(=O)O)C(=O)NC(CC(=O)O)C(=O)NCC(=O)NC(CC(=O)O)C(=O)NCC(=O)NC(C(C)NC(=O)CCCNC(=O)[C@@H](N)C(C)C)C(=O)NC(C(C)C)C(=O)N2CCCC2C(=O)NC1C (some centres unmarked) [Compound 71, C15-Amphomycin-9-GABA-Val]
8 µg/mL | – | CCCCCCCCCCCCCCC(=O)NC(CC(=O)O)C(=O)NC1C(=O)N2CCCCC2C(=O)NC(C(C)C(=O)O)C(=O)NC(CC(=O)O)C(=O)NCC(=O)NC(CC(=O)O)C(=O)NCC(=O)NC(C(C)NC(=O)CCCNC(=O)CCCCCN)C(=O)NC(C(C)C)C(=O)N2CCCC2C(=O)NC1C (centres unmarked) [Compound 72, C15-Amphomycin-9-GABA-Ahx]
– | 73/2-4 μg/mL | CCCCCCCCCCCC(=O)NC(CC(=O)O)C(=O)NC1C(=O)N2CCCCC2C(=O)NC(C(C)C(=O)O)C(=O)NC(CC(=O)O)C(=O)NCC(=O)NC(CC(=O)O)C(=O)NCC(=O)NC(C(C)NC(=O)CCN)C(=O)NC(C(C)C)C(=O)N2CCCC2C(=O)NC1C (stereo not drawn) [Compound 73, C12-Amphomycin-9-(β-Ala)]
